Laboratory results published in patent US20150157575A1, “Pharmaceutical Formulations Comprising Vilazodone” (Forest Laboratories Holdings Ltd., priority 2013, published 2015).
Like-named read-outs stand apart in the source and are kept apart here.

Assays:
serotonin reuptake site = serotonin reuptake site (Homo sapiens, UniProt P31645); settings: cited from earlier work
[1] = Study 1: single-dose pharmacokinetics in mild or moderate hepatic impairment and matched healthy controls; type: in vivo, human; settings: for AUC(0-inf) / AUC(0-t) / Cmax / half-life / Tmax: both sexes, human, plasma, po, 20 mg, vilazodone 20 mg single oral dose
Procedure: (§1) The pharmacokinetics, tolerability, and safety of vilazodone were investigated in two separate trials involving participants with hepatic impairment, compared with healthy controls. An Open-label, parallel-group, single-dose pharmacokinetic studies, a single, oral dose of vilazodone (20 mg with increased hardness) was administered to participants with mild, moderate, or severe hepatic impairment or individually matched controls. Outcomes included pharmacokinetic parameters and safety (vital signs, clinical laboratory evaluations, ECG, and adverse events [AEs]). Plasma samples were analyzed using validated LC/MS/MS methods.
(§2) Data from two, open-label, parallel-group, single-dose pharmacokinetic studies investigated single-dose vilazodone (20 mg with increased hardness) in participants with hepatic impairment and normal hepatic function. The first study (Study 1) included participants with mild or moderate hepatic impairment and healthy controls. The second study (Study 2) included participants with severe hepatic impairment or healthy participants. These studies were both designed in accordance with the FDA guidance for evaluation of pharmacokinetics in the presence of hepatic impairment. The differences between the study protocols were minimal, so both methodologies are described together, with any differences noted below.
(§3) Participants were men and women, 18 to 70 years of age, with a body mass index (BMI) of 18-42 kg/m^2. Women were not pregnant or breastfeeding and agreed to utilize a medically accepted form of contraception during the study (as did men in Study 2). In Study 2, participants were also required to be non-smokers or light smokers (fewer than 10 cigarettes per day; there was no stipulation in Study 1) and to have a sitting pulse rate of 50-100 bpm at screening and prior to dosing on Day 1. […] Each healthy control was matched with a hepatically impaired participant. Control participants in the Study 1 were matched with a hepatically impaired individual according to age (±10 years), sex, and BMI (±15%). Control participants in Study 2 were matched with a hepatically impaired individual according to age (±5 years), sex, and weight (±10%).
(§4) Participants with hepatic dysfunction were classified according to the Child-Pugh hepatic dysfunction staging system as having mild (5-6 points) or moderate (7-9 points) hepatic impairment (Study 1), or severe impairment (10-15 points; Study 2). Participants with severe impairment also had chronic liver disease and/or compensated cirrhosis, as evidenced by liver biopsy, computerized tomography or ultrasonic evidence of hepatic fibrosis, clinical evidence of chronic liver disease, or a colloid shift on a liver-spleen scan. Exclusion criteria included the following: a clinical diagnosis or history of depression; treatment with antidepressants, anxiolytics, psychoactive medications (including herbal supplements), other serotonergic drugs, or drugs that inhibit CYP3A4 (eg, ketoconazole, diltiazem, macrolide antibiotics); a hypersensitivity to vilazodone or other SSRIs or 5-HT agonists; history or evidence of alcohol or substance abuse, cancer, human immunodeficiency virus, hepatitis B (Study 1 and healthy controls, both studies) hepatitis C (healthy controls, both studies), or other clinically significant illnesses or medical conditions. Participants with severe hepatic impairment were excluded if they had bleeding diathesis, advanced ascites requiring large-volume paracentesis within 1 week of dosing, esophageal bleeding within the previous 8 weeks, history of portosystemic shunt or hepatic transplant, or evidence of hepatic encephalopathy, hepatorenal syndrome, or other evidence of rapid hepatic deterioration.
(§5) Participants were not allowed to have previously taken vilazodone or participated in any clinical investigation requiring repeated blood draws within 60 days of dosing, or donated blood or plasma within 60 or 30 days, respectively.

[2] = Study 2: single-dose pharmacokinetics in severe hepatic impairment and matched healthy controls; settings: for AUC(0-t) / AUC(0-inf) / Cmax / Tmax / half-life: both, human, po, 20 mg; for AUC(0-inf): AUC0-∞; for AUC(0-inf) / Cmax / Tmax / half-life: vilazodone 20 mg single oral dose
Procedure: as §1, §2, §3, §4, §5

CYP3A4 = CYP3A4 (Homo sapiens, UniProt P08684); settings: in vitro studies; cited from earlier work
Chain of CYP3A4 (P08684 whole entry): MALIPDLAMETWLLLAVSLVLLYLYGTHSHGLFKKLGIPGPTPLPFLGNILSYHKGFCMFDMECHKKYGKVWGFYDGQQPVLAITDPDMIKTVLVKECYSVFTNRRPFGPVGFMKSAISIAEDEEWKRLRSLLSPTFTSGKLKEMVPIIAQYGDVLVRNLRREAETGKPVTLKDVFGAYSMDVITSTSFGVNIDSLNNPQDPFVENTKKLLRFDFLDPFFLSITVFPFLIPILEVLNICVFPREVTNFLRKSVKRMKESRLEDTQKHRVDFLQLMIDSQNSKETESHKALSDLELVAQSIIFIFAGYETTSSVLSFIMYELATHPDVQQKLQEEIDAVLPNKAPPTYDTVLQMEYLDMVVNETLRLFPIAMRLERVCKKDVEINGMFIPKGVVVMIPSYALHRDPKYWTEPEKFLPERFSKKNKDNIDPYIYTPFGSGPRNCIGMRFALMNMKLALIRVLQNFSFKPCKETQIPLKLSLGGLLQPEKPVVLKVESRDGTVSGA

plasma proteins = test: Vilazodone protein binding by equilibrium dialysis (Studies 1 and 2); type: in vitro ADME; settings: both sexes, human, plasma of study participants, read-out: mean percent free fraction in plasma
Procedure: In both studies, additional samples (6 mL each) were collected to determine vilazodone protein binding: in Study 1, these samples were collected in duplicate at predose hour 0 and postdose hours 6 and 12; in Study 2, the samples were collected at predose hour 0 and postdose hours 4 and 12, with an additional sample (13 mL) collected at hour 0 for the determination of albumin concentration.
The plasma concentrations of vilazodone (Studies 1 and 2) and its metabolite M17 (Study 2), vilazodone concentrations in urine (Study 1), and protein binding were determined using liquid chromatography with tandem mass spectrometry (LC/MS/MS) methodologies that have been validated for the following ranges: plasma vilazodone, 0.75 to 250 ng/mL (Study 1) and 0.5 to 250 ng/mL (Study 2); plasma M17, 0.25-125 ng/mL; urine vilazodone, 1.0-200 ng/mL; vilazodone protein binding, high range (sample compartment) 2.7-108 ng/mL, low range (buffer compartment) 0.1-5.4 ng/mL. The extent of vilazodone binding to plasma proteins was determined using equilibrium dialysis.

[3] = Mild impairment/control, 20 mg single dose
[4] = Moderate impairment/control, 20 mg single dose
[5] = Control matched to Mild Impairment n = 8
[6] = Control matched to Moderate Impairment n = 8
[7] = Severe impairment/control, 20 mg single dose, participants who vomited excluded
[8] = plasma, Control matched to Severe Impairment n = 8
[9] = plasma, Severe Impairment n = 4 (who did not vomit)

Chain of serotonin reuptake site (P31645 whole entry): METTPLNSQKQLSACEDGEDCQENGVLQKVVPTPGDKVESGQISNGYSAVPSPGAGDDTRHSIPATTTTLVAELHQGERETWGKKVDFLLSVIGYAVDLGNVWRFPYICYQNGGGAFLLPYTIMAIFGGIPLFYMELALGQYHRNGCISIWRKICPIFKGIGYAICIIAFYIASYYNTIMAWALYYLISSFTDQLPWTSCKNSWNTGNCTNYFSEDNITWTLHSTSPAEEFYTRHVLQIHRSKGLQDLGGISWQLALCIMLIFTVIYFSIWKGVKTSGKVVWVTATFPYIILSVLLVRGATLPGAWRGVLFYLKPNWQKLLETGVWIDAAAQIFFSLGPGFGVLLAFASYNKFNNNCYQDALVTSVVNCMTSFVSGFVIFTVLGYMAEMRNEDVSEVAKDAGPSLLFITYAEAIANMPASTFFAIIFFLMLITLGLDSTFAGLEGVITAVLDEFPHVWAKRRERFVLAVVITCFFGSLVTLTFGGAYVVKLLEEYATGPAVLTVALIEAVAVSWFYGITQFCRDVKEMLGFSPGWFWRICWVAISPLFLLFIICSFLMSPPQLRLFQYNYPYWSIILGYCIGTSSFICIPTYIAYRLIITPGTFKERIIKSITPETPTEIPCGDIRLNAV

SMILES: Cl.N#Cc1ccc2[nH]cc(CCCCN3CCN(c4ccc5oc(C(N)=O)cc5c4)CC3)c2c1 [Vilazodone, 1-[4-(5-cyanoindol-3-yl)butyl]-4-(2-carbamoyl-benzofuran-5-yl)-piperazine hydrochloride]
- binding affinity to serotonin reuptake site (serotonin reuptake site): high affinity
- AUC0-t, Ratio of Geometric Means (%) [1, 3]: 97.7%
- AUC0-∞, Ratio of Geometric Means (%) [1, 3]: 98.0%
- Cmax, Ratio of Geometric Means (%) [1, 3]: 97.8%
- AUC0-t, Ratio of Geometric Means (%) [1, 4]: 89.5%
- AUC0-∞, Ratio of Geometric Means (%) [1, 4]: 90.5%
- Cmax, Ratio of Geometric Means (%) [1, 4]: 97.2%
- AUC(0-inf) [1, 5]: 945 ± 169 ng·h/mL
- AUC(0-t) [1, 5]: 898 ± 168 ng·h/mL
- Cmax [1, 5]: 43.1 ± 13.1 ng/mL
- half-life [1, 5]: 25.9 ± 5.9 h
- Tmax ([1]; Control matched to Mild Impairment n = 8, read-out: Tmax (mean)): 5 ± 1.5 h
- Tmax ([1]; Control matched to Mild Impairment n = 8, read-out: Tmax, Median): 5 h
- AUC(0-inf) [1, 6]: 809 ± 231 ng·h/mL
- AUC(0-t) [1, 6]: 768 ± 229 ng·h/mL
- Cmax [1, 6]: 35.8 ± 10.7 ng/mL
- half-life [1, 6]: 25.4 ± 5.5 h
- Tmax ([1]; Control matched to Moderate Impairment n = 8, read-out: Tmax (mean)): 4.9 ± 0.84 h
- Tmax ([1]; Control matched to Moderate Impairment n = 8, read-out: Tmax, Median): 5 h
- AUC(0-inf) ([1]; Mild Impairment n = 8): 1030 ± 506 ng·h/mL
- AUC(0-t) ([1]; Mild Impairment n = 8): 984 ± 505 ng·h/mL
- Cmax ([1]; Mild Impairment n = 8): 44.1 ± 16.5 ng/mL
- half-life ([1]; Mild Impairment n = 8): 30.6 ± 8.2 h
- Tmax ([1]; Mild Impairment n = 8, read-out: Tmax (mean)): 4.6 ± 1.6 h
- Tmax ([1]; Mild Impairment n = 8, read-out: Tmax, Median): 4.5 h
- AUC(0-inf) ([1]; Moderate Impairment n = 8): 727 ± 196 ng·h/mL
- AUC(0-t) ([1]; Moderate Impairment n = 8): 683 ± 190 ng·h/mL
- Cmax ([1]; Moderate Impairment n = 8): 34.2 ± 8.2 ng/mL
- half-life ([1]; Moderate Impairment n = 8): 29.4 ± 11.4 h
- Tmax ([1]; Moderate Impairment n = 8, read-out: Tmax (mean)): 4.1 ± 1.8 h
- Tmax ([1]; Moderate Impairment n = 8, read-out: Tmax, Median): 4 h
- mean recovery of unchanged vilazodone in urine over 96 hours ([1]; healthy participants and mild and moderate hepatic impairment, 20 mg single dose): ≤ 1.3 % of the dose
- AUC0-t, Ratio of Geometric Means (%) [2, 7]: 96.9%
- AUC0-∞, Ratio of Geometric Means (%) [2, 7]: 95.8%
- Cmax, Ratio of Geometric Means (%) [2, 7]: 75.2%
- AUC(0-t) ([2]; in vivo): 642 ± 96.9 ng·h/mL
- AUC(0-t) ([2]; plasma): 694 ± 262 ng·h/mL
- AUC(0-inf) [2, 8]: 731 ± 267 ng·h/mL
- AUC(0-inf) [2, 9]: 670 ± 94.8 ng·h/mL
- Cmax [2, 8]: 35 ± 11.8 ng/mL
- Cmax [2, 9]: 25.3 ± 3.8 ng/mL
- Tmax ([2]; plasma, Tmax (mean), Control matched to Severe Impairment n = 8): 4.2 ± 1.3 h
- Tmax ([2]; plasma, Tmax (mean), Severe Impairment n = 4 (who did not vomit)): 4.8 ± 2.2 h
- Tmax ([2]; plasma, Tmax, Median, Control matched to Severe Impairment n = 8): 4.5 h
- Tmax ([2]; plasma, Tmax, Median, Severe Impairment n = 4 (who did not vomit)): 4 h
- half-life ([2]; plasma, t1/2, Control matched to Severe Impairment n = 8): 30.1 ± 13.8 h
- half-life ([2]; plasma, t1/2, Severe Impairment n = 4 (who did not vomit)): 29.8 ± 4.8 h
- mean Cmax lower than in healthy controls ([2]; severe hepatic impairment vs healthy controls, 20 mg single dose): approximately 25%
- Mean unbound drug clearance (CLu/F) lower vs matched controls ([2]; severe impairment group): 33%
- inhibitor or inducer of CYP3A4 (CYP3A4): not an inhibitor or inducer
- fraction unbound (plasma proteins; all participants with severe hepatic impairment): 0.0224
- fraction unbound (plasma proteins; healthy controls): 0.01 to 0.014
- fraction unbound (plasma proteins; participants with mild or moderate hepatic impairment): 0.016
- fraction unbound (plasma proteins; participants with severe hepatic impairment who did not vomit): 0.0213
